Measurements taken from ChEMBL document CHEMBL1131650, “Reactions of 1-methylbenzimidazole derivatives with m-chloroperoxybenzoic acid” (Bioorg Med Chem Lett, 1998).

Test: Compound was evaluated for dissociation constant (pKa)
Assay type: physicochemical

Row | pKa | Compound
1 | 5.7 | Cc1ccc2ncn(C)c2c1
2 | 3.35 | Cn1cnc2ccc([N+](=O)[O-])cc21
3 | 5.6 | Cn1cnc2ccccc21
4 | 5.65 | Cc1ccc2c(c1)ncn2C
5 | 6 | Cc1cc2ncn(C)c2cc1C
6 | 3.28 | Cn1cnc2cc([N+](=O)[O-])ccc21

Row | Compound | pKa
7 | Cn1cnc2cc([N+](=O)[O-])c([N+](=O)[O-])cc21 | 1.6
